Values joined by “and” are separate entries in the source; they are usually repeats but may differ in a detail not shown here. Equal values may be shown once. Numbers after ± are expanded uncertainties.
Settings: 101.33 kPa, Liquid

`CCCCCCCCCCCCCCCCCC` [octadecane] showed a viscosity (299.75 K, Cone and plate viscometry) of 3.95 ± 0.19 mPa·s, a viscosity (299.95 K, Cone and plate viscometry) of 3.92 ± 0.19 mPa·s and a viscosity (300.05 K, Cone and plate viscometry) of 4.21 ± 0.85 mPa·s. The viscosity (300.15 K, Cone and plate viscometry) was 3.91 ± 0.19 mPa·s and 4.12 ± 0.52 mPa·s, the viscosity (300.35 K, Cone and plate viscometry) was 3.89 ± 0.19 mPa·s and 4.09 ± 0.52 mPa·s and the viscosity (300.55 K, Cone and plate viscometry) was 3.86 ± 0.19 mPa·s. For the same molecule, the viscosity (300.65 K, Cone and plate viscometry) was 4.06 ± 0.51 mPa·s and 4.17 ± 0.84 mPa·s, the viscosity (300.75 K, Cone and plate viscometry) was 3.84 ± 0.19 mPa·s and the viscosity (300.85 K, Cone and plate viscometry) was 3.84 ± 0.18 mPa·s and 4.04 ± 0.51 mPa·s. For the same molecule, the viscosity (300.95 K, Cone and plate viscometry) was 3.82 ± 0.18 mPa·s, the viscosity (300.96 K, Concentric cylinders viscometry) was 4.095 ± 0.22 mPa·s and the viscosity (301.15 K, Cone and plate viscometry) was 3.81 ± 0.18 mPa·s and 4.02 ± 0.51 mPa·s and 4.13 ± 0.83 mPa·s. The viscosity (301.29 K, Concentric cylinders viscometry) was 4.068 ± 0.22 mPa·s [middle of 4 runs], the viscosity (301.35 K, Cone and plate viscometry) was 3.8 ± 0.18 mPa·s and 4 ± 0.5 mPa·s and the viscosity (301.36 K, Concentric cylinders viscometry) was 4.052 ± 0.22 mPa·s. The viscosity (301.55 K, Cone and plate viscometry) was 3.8 ± 0.18 mPa·s, the viscosity (301.65 K, Cone and plate viscometry) was 3.98 ± 0.5 mPa·s and 4.09 ± 0.82 mPa·s and the viscosity (301.75 K, Cone and plate viscometry) was 3.76 ± 0.18 mPa·s and 3.74 ± 0.36 mPa·s. It also gave a viscosity (301.76 K, Concentric cylinders viscometry) of 4.011 ± 0.22 mPa·s, a viscosity (301.84 K, Concentric cylinders viscometry) of 4.009 ± 0.22 mPa·s and a viscosity (301.85 K, Cone and plate viscometry) of 3.96 ± 0.5 mPa·s. For the same molecule, the viscosity (301.95 K, Cone and plate viscometry) was 3.77 ± 0.18 mPa·s, the viscosity (302.05 K, Cone and plate viscometry) was 3.71 ± 0.35 mPa·s and the viscosity (302.15 K, Cone and plate viscometry) was 3.76 ± 0.18 mPa·s and 3.93 ± 0.49 mPa·s and 4.04 ± 0.81 mPa·s. The viscosity (302.18 K, Concentric cylinders viscometry) was 3.967 ± 0.21 mPa·s, the viscosity (302.35 K, Cone and plate viscometry) was 3.72 ± 0.18 mPa·s and 3.91 ± 0.49 mPa·s and the viscosity (302.45 K, Cone and plate viscometry) was 3.69 ± 0.35 mPa·s. The viscosity (302.55 K, Cone and plate viscometry) was 3.73 ± 0.18 mPa·s, the viscosity (302.58 K, Concentric cylinders viscometry) was 3.927 ± 0.21 mPa·s and the viscosity (302.64 K, Concentric cylinders viscometry) was 3.926 ± 0.21 mPa·s. For the same molecule, the viscosity (302.65 K, Cone and plate viscometry) was 3.88 ± 0.49 mPa·s and 4.01 ± 0.81 mPa·s, the viscosity (302.75 K, Cone and plate viscometry) was 3.71 ± 0.18 mPa·s and the viscosity (302.85 K, Cone and plate viscometry) was 3.85 ± 0.49 mPa·s and 3.66 ± 0.35 mPa·s. The viscosity (302.95 K, Cone and plate viscometry) was 3.69 ± 0.18 mPa·s, the viscosity (302.96 K, Concentric cylinders viscometry) was 3.884 ± 0.21 mPa·s and the viscosity (303.15 K, Cone and plate viscometry) was 3.72 ± 0.18 mPa·s [middle of 6 runs]. The viscosity (303.35 K, Cone and plate viscometry) was 3.67 ± 0.18 mPa·s and 3.81 ± 0.48 mPa·s, the viscosity (303.38 K, Concentric cylinders viscometry) was 3.837 ± 0.21 mPa·s [middle of 5 runs] and the viscosity (303.4 K, Concentric cylinders viscometry) was 3.838 ± 0.21 mPa·s. For the same molecule, the viscosity (303.42 K, Concentric cylinders viscometry) was 3.846 ± 0.21 mPa·s, the viscosity (303.55 K, Cone and plate viscometry) was 3.63 ± 0.17 mPa·s and 3.61 ± 0.34 mPa·s and the viscosity (303.65 K, Cone and plate viscometry) was 3.78 ± 0.48 mPa·s and 3.93 ± 0.79 mPa·s. For the same molecule, the viscosity (303.75 K, Cone and plate viscometry) was 3.64 ± 0.18 mPa·s, the viscosity (303.81 K, Concentric cylinders viscometry) was 3.799 ± 0.21 mPa·s and the viscosity (303.85 K, Cone and plate viscometry) was 3.77 ± 0.47 mPa·s and 3.59 ± 0.34 mPa·s. For the same molecule, the viscosity (303.95 K, Cone and plate viscometry) was 3.65 ± 0.18 mPa·s, the viscosity (304.15 K, Cone and plate viscometry) was 3.6 ± 0.17 mPa·s and 3.75 ± 0.47 mPa·s and 3.89 ± 0.78 mPa·s and the viscosity (304.19 K, Concentric cylinders viscometry) was 3.769 ± 0.2 mPa·s. The viscosity (304.21 K, Concentric cylinders viscometry) was 3.762 ± 0.2 mPa·s, the viscosity (304.25 K, Cone and plate viscometry) was 3.56 ± 0.34 mPa·s and the viscosity (304.35 K, Cone and plate viscometry) was 3.58 ± 0.17 mPa·s and 3.73 ± 0.47 mPa·s. The viscosity (304.55 K, Cone and plate viscometry) was 3.57 ± 0.17 mPa·s and 3.53 ± 0.34 mPa·s, the viscosity (304.58 K, Concentric cylinders viscometry) was 3.727 ± 0.2 mPa·s and the viscosity (304.65 K, Cone and plate viscometry) was 3.7 ± 0.47 mPa·s and 3.85 ± 0.77 mPa·s. It also gave a viscosity (304.75 K, Cone and plate viscometry) of 3.56 ± 0.17 mPa·s, a viscosity (304.85 K, Cone and plate viscometry) of 3.69 ± 0.47 mPa·s and a viscosity (304.92 K, Concentric cylinders viscometry) of 3.694 ± 0.2 mPa·s. For the same molecule, the viscosity (304.95 K, Cone and plate viscometry) was 3.53 ± 0.17 mPa·s and 3.51 ± 0.33 mPa·s, the viscosity (305.08 K, Concentric cylinders viscometry) was 3.678 ± 0.2 mPa·s and the viscosity (305.15 K, Cone and plate viscometry) was 3.55 ± 0.17 mPa·s and 3.67 ± 0.46 mPa·s and 3.81 ± 0.76 mPa·s. For the same molecule, the viscosity (305.25 K, Cone and plate viscometry) was 3.48 ± 0.33 mPa·s, the viscosity (305.35 K, Cone and plate viscometry) was 3.5 ± 0.17 mPa·s and 3.64 ± 0.46 mPa·s and the viscosity (305.46 K, Concentric cylinders viscometry) was 3.642 ± 0.2 mPa·s. For the same molecule, the viscosity (305.55 K, Cone and plate viscometry) was 3.5 ± 0.17 mPa·s, the viscosity (305.65 K, Cone and plate viscometry) was 3.62 ± 0.46 mPa·s and 3.47 ± 0.33 mPa·s and 3.77 ± 0.76 mPa·s and the viscosity (305.7 K, Concentric cylinders viscometry) was 3.624 ± 0.2 mPa·s. It also gave a viscosity (305.75 K, Cone and plate viscometry) of 3.48 ± 0.17 mPa·s, a viscosity (305.84 K, Concentric cylinders viscometry) of 3.606 ± 0.2 mPa·s and a viscosity (305.85 K, Cone and plate viscometry) of 3.6 ± 0.45 mPa·s. The viscosity (305.95 K, Cone and plate viscometry) was 3.46 ± 0.17 mPa·s, the viscosity (306.05 K, Cone and plate viscometry) was 3.43 ± 0.33 mPa·s and the viscosity (306.15 K, Cone and plate viscometry) was 3.47 ± 0.17 mPa·s and 3.58 ± 0.45 mPa·s and 3.72 ± 0.75 mPa·s. The viscosity (306.23 K, Concentric cylinders viscometry) was 3.571 ± 0.19 mPa·s, the viscosity (306.35 K, Cone and plate viscometry) was 3.47 ± 0.17 mPa·s and 3.56 ± 0.45 mPa·s and 3.42 ± 0.33 mPa·s and the viscosity (306.42 K, Concentric cylinders viscometry) was 3.556 ± 0.19 mPa·s. The viscosity (306.55 K, Cone and plate viscometry) was 3.44 ± 0.17 mPa·s, the viscosity (306.61 K, Concentric cylinders viscometry) was 3.538 ± 0.19 mPa·s and the viscosity (306.65 K, Cone and plate viscometry) was 3.54 ± 0.45 mPa·s and 3.69 ± 0.74 mPa·s. The viscosity (306.75 K, Cone and plate viscometry) was 3.42 ± 0.17 mPa·s and 3.39 ± 0.32 mPa·s, the viscosity (306.85 K, Cone and plate viscometry) was 3.52 ± 0.44 mPa·s and the viscosity (306.95 K, Cone and plate viscometry) was 3.43 ± 0.17 mPa·s. For the same molecule, the viscosity (306.98 K, Concentric cylinders viscometry) was 3.502 ± 0.19 mPa·s, the viscosity (307.05 K, Cone and plate viscometry) was 3.36 ± 0.32 mPa·s and the viscosity (307.15 K, Cone and plate viscometry) was 3.42 ± 0.17 mPa·s and 3.5 ± 0.44 mPa·s and 3.66 ± 0.73 mPa·s. The viscosity (307.3 K, Concentric cylinders viscometry) was 3.478 ± 0.19 mPa·s, the viscosity (307.35 K, Cone and plate viscometry) was 3.4 ± 0.16 mPa·s and 3.49 ± 0.44 mPa·s and the viscosity (307.37 K, Concentric cylinders viscometry) was 3.469 ± 0.19 mPa·s. For the same molecule, the viscosity (307.45 K, Cone and plate viscometry) was 3.35 ± 0.32 mPa·s, the viscosity (307.55 K, Cone and plate viscometry) was 3.39 ± 0.16 mPa·s and the viscosity (307.65 K, Cone and plate viscometry) was 3.47 ± 0.44 mPa·s and 3.62 ± 0.73 mPa·s. The viscosity (307.72 K, Concentric cylinders viscometry) was 3.438 ± 0.19 mPa·s, the viscosity (307.75 K, Cone and plate viscometry) was 3.38 ± 0.16 mPa·s and 3.32 ± 0.32 mPa·s and the viscosity (307.84 K, Concentric cylinders viscometry) was 3.426 ± 0.19 mPa·s and 3.427 ± 0.19 mPa·s. The viscosity (307.85 K, Concentric cylinders viscometry) was 3.426 ± 0.19 mPa·s, the viscosity (307.85 K, Cone and plate viscometry) was 3.45 ± 0.43 mPa·s and the viscosity (307.87 K, Concentric cylinders viscometry) was 3.426 ± 0.19 mPa·s. For the same molecule, the viscosity (307.93 K, Concentric cylinders viscometry) was 3.424 ± 0.19 mPa·s, the viscosity (307.95 K, Cone and plate viscometry) was 3.35 ± 0.16 mPa·s and the viscosity (308.07 K, Concentric cylinders viscometry) was 3.413 ± 0.18 mPa·s. The viscosity (308.11 K, Concentric cylinders viscometry) was 3.404 ± 0.18 mPa·s, the viscosity (308.15 K, Cone and plate viscometry) was 3.35 ± 0.16 mPa·s [middle of 6 runs] and the viscosity (308.35 K, Cone and plate viscometry) was 3.31 ± 0.16 mPa·s and 3.42 ± 0.43 mPa·s. For the same molecule, the viscosity (308.55 K, Cone and plate viscometry) was 3.29 ± 0.16 mPa·s and 3.28 ± 0.31 mPa·s, the viscosity (308.59 K, Concentric cylinders viscometry) was 3.363 ± 0.18 mPa·s and the viscosity (308.65 K, Cone and plate viscometry) was 3.39 ± 0.43 mPa·s and 3.53 ± 0.71 mPa·s. The viscosity (308.75 K, Cone and plate viscometry) was 3.29 ± 0.16 mPa·s, the viscosity (308.83 K, Concentric cylinders viscometry) was 3.349 ± 0.18 mPa·s and the viscosity (308.85 K, Cone and plate viscometry) was 3.37 ± 0.42 mPa·s and 3.26 ± 0.31 mPa·s. The viscosity (308.95 K, Cone and plate viscometry) was 3.29 ± 0.16 mPa·s, the viscosity (308.96 K, Concentric cylinders viscometry) was 3.333 ± 0.18 mPa·s and the viscosity (309.15 K, Cone and plate viscometry) was 3.27 ± 0.16 mPa·s and 3.36 ± 0.42 mPa·s and 3.49 ± 0.7 mPa·s. For the same molecule, the viscosity (309.25 K, Cone and plate viscometry) was 3.25 ± 0.31 mPa·s, the viscosity (309.3 K, Concentric cylinders viscometry) was 3.306 ± 0.18 mPa·s and the viscosity (309.35 K, Cone and plate viscometry) was 3.26 ± 0.16 mPa·s and 3.34 ± 0.42 mPa·s. The viscosity (309.55 K, Cone and plate viscometry) was 3.28 ± 0.16 mPa·s and 3.22 ± 0.31 mPa·s, the viscosity (309.58 K, Concentric cylinders viscometry) was 3.286 ± 0.18 mPa·s and the viscosity (309.65 K, Cone and plate viscometry) was 3.32 ± 0.42 mPa·s and 3.45 ± 0.69 mPa·s.

Source: the NIST ThermoML archive (doi:10.1016/j.tca.2018.08.017)
